Measured values taken from patent US20240108725A1, “METHOD FOR TREATING CANCER AND SYSTEM FOR SAME” (OTSUKA MEDICAL DEVICES CO., LTD, priority 2020, published 2024).

System: C6 cells
Assay: Rate of dead cells after 5-ALA PDT in erythrocyte solution, C6 cells, Example 3
Format: cell-based, rat
Experimental: C6 cells or human leukemia cell line TL-Oml cells were cultured in 2.5% FBS/F-12K medium (C6 cells) or 10% FBS/RPMI1640 (TL-Oml cells) supplemented with 5-ALA to a final concentration of 0.125 to 0.5 mM in a 5% CO2 incubator at 37° C. for 4 hours. After the culture, the cells were removed with a 0.25% trypsin-EDTA solution, and the collected cells were adjusted to 2×10^7 cells/mL with an erythrocyte solution (a solution in which erythrocytes and PBS were mixed at a ratio of 45:55). The cell suspension thus prepared was injected into a Tygon tube (inner diameter: 0.79 mm), wrapped around a light irradiator, and irradiated with light having a wavelength of 630 nm so that the irradiation energy density was 0.5 to 500 J/cm^2. After the irradiation, an ammonium chloride solution was added to the cell suspension to hemolyze the erythrocytes. Cells before the PDT treatment, after the PDT treatment, and after 24-hour culture were stained with the FITC Annexin V Apoptosis Detection Kit I and the rate of dead cells was analyzed with a flow cytometer.

[1] = 5-ALA 0.125 mM, 20 J/cm^2, 24 hours after irradiation
[2] = 5-ALA 0.125 mM, 20 J/cm^2, immediately after irradiation
[3] = 5-ALA 0.125 mM, 50 J/cm^2, 24 hours after irradiation
[4] = 5-ALA 0.125 mM, 50 J/cm^2, immediately after irradiation
[5] = 5-ALA 0.125 mM, 100 J/cm^2, 24 hours after irradiation
[6] = 5-ALA 0.125 mM, 100 J/cm^2, immediately after irradiation
[7] = 5-ALA 0.125 mM, 400 J/cm^2, 24 hours after irradiation
[8] = 5-ALA 0.125 mM, 400 J/cm^2, immediately after irradiation
[9] = 5-ALA 0.125 mM, 500 J/cm^2, 24 hours after irradiation
[10] = 5-ALA 0.125 mM, 500 J/cm^2, immediately after irradiation
[11] = 5-ALA 0.25 mM, 2.5 J/cm^2, 24 hours after irradiation
[12] = 5-ALA 0.25 mM, 2.5 J/cm^2, immediately after irradiation
[13] = 5-ALA 0.25 mM, 5 J/cm^2, 24 hours after irradiation
[14] = 5-ALA 0.25 mM, 5 J/cm^2, immediately after irradiation
[15] = 5-ALA 0.25 mM, 250 J/cm^2, 24 hours after irradiation
[16] = 5-ALA 0.25 mM, 250 J/cm^2, immediately after irradiation
[17] = 5-ALA 0.25 mM, 300 J/cm^2, 24 hours after irradiation
[18] = 5-ALA 0.25 mM, 300 J/cm^2, immediately after irradiation
[19] = 5-ALA 0.25 mM, 350 J/cm^2, 24 hours after irradiation
[20] = 5-ALA 0.25 mM, 350 J/cm^2, immediately after irradiation
[21] = 5-ALA 0.5 mM, 0.5 J/cm^2, 24 hours after irradiation
[22] = 5-ALA 0.5 mM, 0.5 J/cm^2, immediately after irradiation
[23] = 5-ALA 0.5 mM, 1 J/cm^2, 24 hours after irradiation
[24] = 5-ALA 0.5 mM, 1 J/cm^2, immediately after irradiation
[25] = 5-ALA 0.5 mM, 2.5 J/cm^2, 24 hours after irradiation
[26] = 5-ALA 0.5 mM, 2.5 J/cm^2, immediately after irradiation
[27] = 5-ALA 0.5 mM, 100 J/cm^2, 24 hours after irradiation
[28] = 5-ALA 0.5 mM, 100 J/cm^2, immediately after irradiation
[29] = 5-ALA 0.5 mM, 350 J/cm^2, 24 hours after irradiation
[30] = 5-ALA 0.5 mM, 350 J/cm^2, immediately after irradiation
[31] = 5-ALA 0.5 mM, 400 J/cm^2, 24 hours after irradiation
[32] = 5-ALA 0.5 mM, 400 J/cm^2, immediately after irradiation
[33] = 5-ALA 0.5 mM, 500 J/cm^2, 24 hours after irradiation
[34] = 5-ALA 0.5 mM, 500 J/cm^2, immediately after irradiation

**Q.** `NCC(=O)CCC(=O)O` [5-ALA, 5-aminolevulinic acid] was tested. Which “Annexin V+/PI+ (%)” value [1] did it give?
**A.** 2%

**Q.** And the “Annexin V+/PI− (%)” value [1]?
**A.** 3%

**Q.** And the “Annexin V-/PI− (%)” value [1]?
**A.** 95%

**Q.** And the “Annexin V+/PI+ (%)” value [2]?
**A.** 2%

**Q.** And the “Annexin V+/PI− (%)” value [2]?
**A.** 1%

**Q.** And the “Annexin V−/PI− (%)” value [2]?
**A.** 97%

**Q.** And the “Annexin V+/PI+ (%)” value [3]?
**A.** 3%

**Q.** What about the “Annexin V+/PI− (%)” value [3] of the same molecule?
**A.** 3%

**Q.** What about the “Annexin V-/PI− (%)” value [3] of the same molecule?
**A.** 94%

**Q.** What about the “Annexin V+/PI+ (%)” value [4] of the same molecule?
**A.** 3%

**Q.** What about the “Annexin V+/PI− (%)” value [4] of the same molecule?
**A.** 1%

**Q.** And the “Annexin V−/PI− (%)” value [4]?
**A.** 95%

**Q.** And the “Annexin V+/PI+ (%)” value [5]?
**A.** 4%

**Q.** What about the “Annexin V+/PI− (%)” value [5] of the same molecule?
**A.** 4%

**Q.** What about the “Annexin V-/PI− (%)” value [5] of the same molecule?
**A.** 92%

**Q.** What about the “Annexin V+/PI+ (%)” value [6] of the same molecule?
**A.** 4%

**Q.** And the “Annexin V+/PI− (%)” value [6]?
**A.** 1%

**Q.** And the “Annexin V−/PI− (%)” value [6]?
**A.** 95%

**Q.** What about the “Annexin V+/PI+ (%)” value [7] of the same molecule?
**A.** 10%

**Q.** What about the “Annexin V+/PI− (%)” value [7] of the same molecule?
**A.** 5%

**Q.** And the “Annexin V+/PI+ (%)” value [8]?
**A.** 6%

**Q.** What about the “Annexin V+/PI− (%)” value [8] of the same molecule?
**A.** 1%

**Q.** And the “Annexin V−/PI− (%)” value [8]?
**A.** 93%

**Q.** And the “Annexin V+/PI+ (%)” value [9]?
**A.** 27%

**Q.** And the “Annexin V+/PI− (%)” value [9]?
**A.** 9%

**Q.** What about the “Annexin V+/PI+ (%)” value [10] of the same molecule?
**A.** 17%

**Q.** What about the “Annexin V+/PI− (%)” value [10] of the same molecule?
**A.** 0%

**Q.** What about the “Annexin V−/PI− (%)” value [10] of the same molecule?
**A.** 82%

**Q.** And the “Annexin V+/PI+ (%)” value [11]?
**A.** 2%

**Q.** What about the “Annexin V+/PI− (%)” value [11] of the same molecule?
**A.** 5%

**Q.** What about the “Annexin V−/PI− (%)” value [11] of the same molecule?
**A.** 93%

**Q.** And the “Annexin V+/PI+ (%)” value [12]?
**A.** 2%

**Q.** What about the “Annexin V+/PI− (%)” value [12] of the same molecule?
**A.** 1%

**Q.** What about the “Annexin V−/PI− (%)” value [12] of the same molecule?
**A.** 97%

**Q.** What about the “Annexin V+/PI+ (%)” value [13] of the same molecule?
**A.** 5%

**Q.** What about the “Annexin V+/PI− (%)” value [13] of the same molecule?
**A.** 8%

**Q.** And the “Annexin V−/PI− (%)” value [13]?
**A.** 88%

**Q.** And the “Annexin V+/PI+ (%)” value [14]?
**A.** 3%

**Q.** What about the “Annexin V+/PI− (%)” value [14] of the same molecule?
**A.** 1%

**Q.** What about the “Annexin V−/PI− (%)” value [14] of the same molecule?
**A.** 96%

**Q.** What about the “Annexin V+/PI+ (%)” value [15] of the same molecule?
**A.** 59%

**Q.** What about the “Annexin V+/PI− (%)” value [15] of the same molecule?
**A.** 8%

**Q.** And the “Annexin V−/PI− (%)” value [15]?
**A.** 23%

**Q.** And the “Annexin V+/PI+ (%)” value [16]?
**A.** 70%

**Q.** And the “Annexin V+/PI− (%)” value [16]?
**A.** 0%

**Q.** What about the “Annexin V−/PI− (%)” value [16] of the same molecule?
**A.** 28%

**Q.** What about the “Annexin V+/PI+ (%)” value [17] of the same molecule?
**A.** 86%

**Q.** What about the “Annexin V+/PI− (%)” value [17] of the same molecule?
**A.** 4%

**Q.** And the “Annexin V−/PI− (%)” value [17]?
**A.** 10%

**Q.** What about the “Annexin V+/PI+ (%)” value [18] of the same molecule?
**A.** 83%

**Q.** And the “Annexin V+/PI− (%)” value [18]?
**A.** 0%

**Q.** And the “Annexin V−/PI− (%)” value [18]?
**A.** 14%

**Q.** What about the “Annexin V+/PI+ (%)” value [19] of the same molecule?
**A.** 96%

**Q.** And the “Annexin V+/PI− (%)” value [19]?
**A.** 1%

**Q.** What about the “Annexin V−/PI− (%)” value [19] of the same molecule?
**A.** 2%

**Q.** And the “Annexin V+/PI+ (%)” value [20]?
**A.** 91%

**Q.** What about the “Annexin V+/PI− (%)” value [20] of the same molecule?
**A.** 0%

**Q.** And the “Annexin V−/PI− (%)” value [20]?
**A.** 6%

**Q.** And the “Annexin V+/PI+ (%)” value [21]?
**A.** 2%

**Q.** What about the “Annexin V+/PI− (%)” value [21] of the same molecule?
**A.** 3%

**Q.** What about the “Annexin V−/PI− (%)” value [21] of the same molecule?
**A.** 95%

**Q.** And the “Annexin V+/PI+ (%)” value [22]?
**A.** 3%

**Q.** What about the “Annexin V+/PI− (%)” value [22] of the same molecule?
**A.** 2%

**Q.** And the “Annexin V−/PI− (%)” value [22]?
**A.** 95%

**Q.** What about the “Annexin V+/PI+ (%)” value [23] of the same molecule?
**A.** 2%

**Q.** What about the “Annexin V+/PI− (%)” value [23] of the same molecule?
**A.** 3%

**Q.** And the “Annexin V−/PI− (%)” value [23]?
**A.** 95%

**Q.** What about the “Annexin V+/PI+ (%)” value [24] of the same molecule?
**A.** 3%

**Q.** And the “Annexin V+/PI− (%)” value [24]?
**A.** 1%

**Q.** What about the “Annexin V−/PI− (%)” value [24] of the same molecule?
**A.** 96%

**Q.** What about the “Annexin V+/PI+ (%)” value [25] of the same molecule?
**A.** 4%

**Q.** And the “Annexin V+/PI− (%)” value [25]?
**A.** 4%

**Q.** And the “Annexin V−/PI− (%)” value [25]?
**A.** 92%

**Q.** And the “Annexin V+/PI+ (%)” value [26]?
**A.** 4%

**Q.** What about the “Annexin V+/PI− (%)” value [26] of the same molecule?
**A.** 1%

**Q.** What about the “Annexin V−/PI− (%)” value [26] of the same molecule?
**A.** 94%

**Q.** What about the “Annexin V+/PI+ (%)” value [27] of the same molecule?
**A.** 86%

**Q.** What about the “Annexin V+/PI− (%)” value [27] of the same molecule?
**A.** 6%

**Q.** And the “Annexin V−/PI− (%)” value [27]?
**A.** 8%

**Q.** And the “Annexin V+/PI+ (%)” value [28]?
**A.** 81%

**Q.** What about the “Annexin V+/PI− (%)” value [28] of the same molecule?
**A.** 2%

**Q.** What about the “Annexin V−/PI− (%)” value [28] of the same molecule?
**A.** 15%

**Q.** And the “Annexin V+/PI+ (%)” value [29]?
**A.** 92%

**Q.** And the “Annexin V+/PI− (%)” value [29]?
**A.** 4%

**Q.** And the “Annexin V−/PI− (%)” value [29]?
**A.** 3%

**Q.** What about the “Annexin V+/PI+ (%)” value [30] of the same molecule?
**A.** 90%

**Q.** What about the “Annexin V+/PI− (%)” value [30] of the same molecule?
**A.** 0%

**Q.** What about the “Annexin V−/PI− (%)” value [30] of the same molecule?
**A.** 8%

**Q.** And the “Annexin V+/PI+ (%)” value [31]?
**A.** 96%

**Q.** What about the “Annexin V+/PI− (%)” value [31] of the same molecule?
**A.** 2%

**Q.** And the “Annexin V−/PI− (%)” value [31]?
**A.** 1%

**Q.** What about the “Annexin V+/PI+ (%)” value [32] of the same molecule?
**A.** 94%

**Q.** And the “Annexin V+/PI− (%)” value [32]?
**A.** 0%

**Q.** What about the “Annexin V−/PI− (%)” value [32] of the same molecule?
**A.** 5%

**Q.** What about the “Annexin V+/PI+ (%)” value [33] of the same molecule?
**A.** 98%

**Q.** And the “Annexin V+/PI− (%)” value [33]?
**A.** 2%

**Q.** And the “Annexin V−/PI− (%)” value [33]?
**A.** 1%

**Q.** What about the “Annexin V+/PI+ (%)” value [34] of the same molecule?
**A.** 97%

**Q.** And the “Annexin V+/PI− (%)” value [34]?
**A.** 0%

**Q.** And the “Annexin V−/PI− (%)” value [34]?
**A.** 2%
